Data published in ChEMBL document CHEMBL1201862, “PubChem BioAssay data set” (2004).
Calls of active or inactive are those of the source.

Assays:
[1] = target: Cystic fibrosis transmembrane conductance regulator/Golgi-associated PDZ and coiled-coil motif-containing protein (Homo sapiens, UniProt P13569+Q9HD26); assay: potency against CAL PDZ-peptide interaction – biochemical, fluorescence polarization, Cerulean-tagged CAL PDZ, cherry-picks, dose response (AID 504773)
[2] = target: Eukaryotic translation initiation factor 4E (Mus musculus, UniProt P63073); assay: blockers of eIF4G binding by eIF4E – biochemical, TR-FRET, dose response (AID 855); format: functional;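 also: potency for disrupting eIF4E binding to eIF4GI seen as loss of FRET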
Sequence of Eukaryotic translation initiation factor 4E (P63073 whole entry): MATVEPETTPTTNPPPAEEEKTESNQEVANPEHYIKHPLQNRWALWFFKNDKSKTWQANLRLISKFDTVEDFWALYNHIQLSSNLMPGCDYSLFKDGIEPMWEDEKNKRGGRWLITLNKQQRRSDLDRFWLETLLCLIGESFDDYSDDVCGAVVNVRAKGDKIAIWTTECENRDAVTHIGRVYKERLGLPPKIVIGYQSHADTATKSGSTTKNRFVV

Hexokinase HKDC1 = target: T1, Hexokinase HKDC1 (Homo sapiens, UniProt Q2TB90); assay: inhibition of HKDC1 glucose phosphorylation – biochemical, W721R variant, dose response (AID 504729); format: functional
T1 sequence (Q2TB90 whole entry): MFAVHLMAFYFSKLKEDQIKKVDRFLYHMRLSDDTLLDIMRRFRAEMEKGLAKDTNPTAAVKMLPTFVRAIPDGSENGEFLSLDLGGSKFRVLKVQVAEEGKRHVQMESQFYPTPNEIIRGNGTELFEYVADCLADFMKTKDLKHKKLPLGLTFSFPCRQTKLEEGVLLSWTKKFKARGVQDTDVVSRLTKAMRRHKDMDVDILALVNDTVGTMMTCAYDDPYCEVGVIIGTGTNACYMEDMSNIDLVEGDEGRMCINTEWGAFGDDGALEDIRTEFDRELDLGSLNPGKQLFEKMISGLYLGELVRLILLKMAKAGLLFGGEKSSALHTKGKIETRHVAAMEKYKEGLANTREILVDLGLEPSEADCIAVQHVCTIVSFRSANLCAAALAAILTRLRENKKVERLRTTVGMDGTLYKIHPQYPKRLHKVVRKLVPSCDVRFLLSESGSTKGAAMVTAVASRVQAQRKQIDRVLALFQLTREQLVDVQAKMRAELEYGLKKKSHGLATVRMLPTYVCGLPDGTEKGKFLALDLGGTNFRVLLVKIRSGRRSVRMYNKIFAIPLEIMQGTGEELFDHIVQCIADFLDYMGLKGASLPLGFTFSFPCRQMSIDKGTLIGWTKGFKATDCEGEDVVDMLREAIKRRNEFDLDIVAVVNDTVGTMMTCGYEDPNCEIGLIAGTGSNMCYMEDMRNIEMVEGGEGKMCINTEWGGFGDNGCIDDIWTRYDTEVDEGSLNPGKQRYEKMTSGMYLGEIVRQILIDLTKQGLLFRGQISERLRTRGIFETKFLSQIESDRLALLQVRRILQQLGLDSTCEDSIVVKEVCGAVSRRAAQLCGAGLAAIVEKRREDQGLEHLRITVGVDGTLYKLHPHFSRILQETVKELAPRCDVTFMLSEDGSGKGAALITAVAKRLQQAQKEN

[3] = target: T2, Replicative DNA helicase DnaB (Mycobacterium tuberculosis, UniProt P9WMR3); assay: DnaB intein splicing inhibitors, dose response, biochemical, cell-free fluorescence (AID 449749); format: functional
T2 sequence (P9WMR3 whole entry): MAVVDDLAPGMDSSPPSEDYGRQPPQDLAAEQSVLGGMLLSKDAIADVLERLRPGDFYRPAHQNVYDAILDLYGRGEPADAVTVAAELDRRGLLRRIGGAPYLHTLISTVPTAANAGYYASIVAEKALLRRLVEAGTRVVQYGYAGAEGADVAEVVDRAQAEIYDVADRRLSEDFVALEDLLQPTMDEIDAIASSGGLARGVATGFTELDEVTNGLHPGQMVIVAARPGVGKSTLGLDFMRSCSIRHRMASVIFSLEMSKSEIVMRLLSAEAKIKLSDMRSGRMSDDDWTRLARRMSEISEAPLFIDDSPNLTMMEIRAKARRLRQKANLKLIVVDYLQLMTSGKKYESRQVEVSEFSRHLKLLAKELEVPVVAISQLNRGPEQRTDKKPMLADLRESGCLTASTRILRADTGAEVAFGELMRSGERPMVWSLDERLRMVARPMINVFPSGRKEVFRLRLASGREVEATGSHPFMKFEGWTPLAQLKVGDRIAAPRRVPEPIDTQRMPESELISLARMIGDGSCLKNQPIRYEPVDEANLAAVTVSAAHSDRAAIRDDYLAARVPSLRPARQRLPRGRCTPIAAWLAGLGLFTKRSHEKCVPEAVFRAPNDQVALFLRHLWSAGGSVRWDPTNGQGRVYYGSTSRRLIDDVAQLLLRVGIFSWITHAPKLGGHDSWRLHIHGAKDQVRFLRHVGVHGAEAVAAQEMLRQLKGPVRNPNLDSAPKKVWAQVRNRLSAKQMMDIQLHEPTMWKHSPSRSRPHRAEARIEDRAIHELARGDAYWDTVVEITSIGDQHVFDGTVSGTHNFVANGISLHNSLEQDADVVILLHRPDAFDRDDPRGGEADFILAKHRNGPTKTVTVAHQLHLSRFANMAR

Protein RecA = target: T3, Protein RecA (Mycobacterium tuberculosis, UniProt P9WHJ3); assay: Fluorescence Cell-Free Homogeneous Dose Retest to Identify Inhibitors of RecA-Intein Splicing Activity. [Related pubchem assays (depositor defined):AID2097, AID2223, AID489010, AID492950]; format: functional
T3 sequence (P9WHJ3 whole entry): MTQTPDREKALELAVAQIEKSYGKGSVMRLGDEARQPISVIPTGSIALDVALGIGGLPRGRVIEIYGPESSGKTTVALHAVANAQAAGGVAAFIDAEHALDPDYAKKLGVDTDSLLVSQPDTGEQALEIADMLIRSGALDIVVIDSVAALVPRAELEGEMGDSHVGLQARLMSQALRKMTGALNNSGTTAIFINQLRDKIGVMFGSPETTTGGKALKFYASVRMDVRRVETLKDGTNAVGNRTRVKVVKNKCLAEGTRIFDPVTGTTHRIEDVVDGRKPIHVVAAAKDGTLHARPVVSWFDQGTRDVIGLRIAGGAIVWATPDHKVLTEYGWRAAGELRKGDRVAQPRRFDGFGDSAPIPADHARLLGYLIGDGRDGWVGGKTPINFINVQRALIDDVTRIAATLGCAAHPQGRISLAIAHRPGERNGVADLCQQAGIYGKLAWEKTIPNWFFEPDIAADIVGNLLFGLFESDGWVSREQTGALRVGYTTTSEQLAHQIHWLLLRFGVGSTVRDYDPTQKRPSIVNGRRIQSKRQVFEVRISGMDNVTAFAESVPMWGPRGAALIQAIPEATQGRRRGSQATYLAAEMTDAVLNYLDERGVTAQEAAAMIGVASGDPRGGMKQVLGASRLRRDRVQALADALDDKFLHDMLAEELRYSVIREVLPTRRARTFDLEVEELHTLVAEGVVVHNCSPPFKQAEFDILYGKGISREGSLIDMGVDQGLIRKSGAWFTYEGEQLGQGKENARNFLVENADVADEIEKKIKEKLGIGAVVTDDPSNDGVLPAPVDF

[4] = blockers of CAL PDZ ligand groove binding – biochemical, fluorescence polarization, untagged CAL PDZ, cherry-pick, dose response (AID 602267); format: functional

Sequence of Cystic fibrosis transmembrane conductance regulator/Golgi-associated PDZ and coiled-coil motif-containing protein (P13569 whole entry, other chains not shown): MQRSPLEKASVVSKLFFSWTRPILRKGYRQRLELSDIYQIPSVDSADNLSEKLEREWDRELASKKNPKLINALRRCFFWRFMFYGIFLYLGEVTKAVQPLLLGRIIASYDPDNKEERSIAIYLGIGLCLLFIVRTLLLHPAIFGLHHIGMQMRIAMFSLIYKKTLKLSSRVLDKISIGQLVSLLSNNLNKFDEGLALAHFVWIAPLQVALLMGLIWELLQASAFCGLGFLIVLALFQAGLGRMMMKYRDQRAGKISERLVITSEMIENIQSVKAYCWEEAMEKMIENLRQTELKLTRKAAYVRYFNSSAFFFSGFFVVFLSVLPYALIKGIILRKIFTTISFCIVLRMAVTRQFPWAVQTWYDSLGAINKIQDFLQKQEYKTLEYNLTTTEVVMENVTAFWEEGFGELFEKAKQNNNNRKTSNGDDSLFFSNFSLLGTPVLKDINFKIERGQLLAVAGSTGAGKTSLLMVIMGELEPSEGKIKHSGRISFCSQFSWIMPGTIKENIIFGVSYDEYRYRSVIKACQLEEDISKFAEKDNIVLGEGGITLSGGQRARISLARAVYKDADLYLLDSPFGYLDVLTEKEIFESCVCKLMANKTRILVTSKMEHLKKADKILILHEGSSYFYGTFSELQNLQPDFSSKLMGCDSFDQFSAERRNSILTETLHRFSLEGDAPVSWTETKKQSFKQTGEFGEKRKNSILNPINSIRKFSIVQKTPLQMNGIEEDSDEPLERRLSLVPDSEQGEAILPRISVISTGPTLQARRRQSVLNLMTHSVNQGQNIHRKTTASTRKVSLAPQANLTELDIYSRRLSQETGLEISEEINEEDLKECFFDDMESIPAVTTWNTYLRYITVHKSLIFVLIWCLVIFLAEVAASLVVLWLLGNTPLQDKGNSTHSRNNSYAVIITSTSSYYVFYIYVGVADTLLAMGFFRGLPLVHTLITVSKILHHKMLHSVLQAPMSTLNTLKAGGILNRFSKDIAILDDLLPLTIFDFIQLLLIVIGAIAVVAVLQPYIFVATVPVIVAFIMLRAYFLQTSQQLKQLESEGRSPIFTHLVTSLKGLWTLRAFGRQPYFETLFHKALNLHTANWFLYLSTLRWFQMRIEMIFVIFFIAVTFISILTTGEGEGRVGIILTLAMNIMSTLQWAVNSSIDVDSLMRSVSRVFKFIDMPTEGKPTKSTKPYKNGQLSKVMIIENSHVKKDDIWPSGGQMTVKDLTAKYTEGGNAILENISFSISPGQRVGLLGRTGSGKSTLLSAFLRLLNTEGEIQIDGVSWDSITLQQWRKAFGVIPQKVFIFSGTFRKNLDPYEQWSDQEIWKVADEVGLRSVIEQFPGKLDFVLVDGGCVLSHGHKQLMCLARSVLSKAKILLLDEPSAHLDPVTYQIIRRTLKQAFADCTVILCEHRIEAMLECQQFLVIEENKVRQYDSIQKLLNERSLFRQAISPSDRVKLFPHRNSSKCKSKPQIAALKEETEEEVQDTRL

O=c1c2ccccc2nc2n1CCC2 [DEOXYVASICINONE]
active: AC50 [1] 21.3 µM | IC50 [2] 6.2 µM | IC50 (Hexokinase HKDC1) 4.32 µM | AC50 [3] 13.3 µM | EC50 (Protein RecA) 11.6 µM | AC50 [4] 60.4 µM
